Measurements published in US5352815A, “Agent for suppression and interception of mailard reaction” (Asai Germanium Research Institute Co., Ltd., priority 1992, dated 1994).

Legend:
[1] = Example 2: AGE formation from F-lysine (model glycosylated protein; absorbance at 420 nm) and F-lysine decomposition (HPLC); type: biochemical
Experimental: The organogermanium compound (1-1) was added to a phosphate buffer solution containing 10 mM of Nα-t-butoxycarbonyl-Nε-fructose-L-lysine(hereinafter abbreviated to F-lysine) as a model glycosylated protein, so that the final concentration became 0, 1, 5, 10 or 50 mM. Then, incubation was conducted at 40° C. for 15 days, after which the formation of AGE was measured by browning degree (absorbance at 420 nm) and the amount of F-lysine decomposed was measured by HPLC to examine the effect of the organogermanium compound (1-1) added.

[2] = system: proteins in plasma; assay: Example 4: glycation of plasma proteins in Streptozocin-diabetic rats; type: in vivo, Sprague-Dawley female rats; conditions: 100 mg per kg, oral in drinking water
Experimental: (§1) Streptozocin was intravenously injected into Sprague-Dawley female rats (total 21 rats each weighing 240-270 g) in an amount of 65 mg per kg of body weight to cause diabetes. Then, the rats were divided into two groups, i.e. a control group and an administered group. An organogermanium compound (1-1) was put into drinking water and orally administered to the administered group at night in an amount of 100 mg per kg of body weight.
4, 8 and 14 weeks after the administration of the organogermanium compound (1-1), blood sampling was made from all the rats of the two groups in hungry state. Each blood taken was measured for blood sugar, glucohemoglobin (hereinafter abbreviated to GHb), glycated albumin (hereinafter abbreviated to GA) and Fructosamine (hereinafter abbreviated to Fru). GHb was measured by affinity chromatography using a mini column, and GA was measured by HPLC using two different columns. The body weight, amount of water taken and amount of food taken, of each rat were also recorded simultaneously.

[3] = Example 3: decomposition of Amadori rearrangement product formed from ribose and alginine (HPLC); type: biochemical; conditions: 40 mM solution mixed 1:1; 37° C., 24 hours, pH 7.4 (FIG. 6)
Experimental: 20 mg of ribose, 20 mg of alginine and 10 ml of methanol were reacted under refluxing, in a hot bath of 60°-70° C. 10-15 minutes later, 0.1-0.3 ml of acetic acid was added and the reaction was continued for a further 5-10 minutes. Then, the reaction mixture was concentrated under reduced pressure. During the concentration, a small amount of water was added to remove acetic acid. The concentrate was dissolved in 1 ml of water and the solution was subjected to HPLC to collect an Amadori rearrangement product. The product was freeze-dried.
The freeze-dried product of the Amadori rearrangement product was suspended in 4 ml of a sodium phosphate buffer solution (pH 7.4, 0.1M). The suspension was mixed with a sodium phosphate buffer solution containing or not containing 40 mM of the organogermanium compound (1-1), at a 1:1 ratio. The mixture was incubated at 37° C. for 24 hours. Sampling of 0.1 ml was conducted with the lapse of time for immediate analysis by HPLC. When immediate analysis was impossible, the sample was freeze-storedat -20° C.

[4] = system: abdomen skin collagen; assay: Example 5: fluorescence of abdomen skin collagen in Streptozocin-diabetic rats; type: in vivo, Sprague-Dawley female rats; conditions: 100 mg per kg, oral in drinking water; 14 weeks
Experimental: as §1
(§2) 14 weeks after the administration of the organogermanium compound (1-1), all the rats were killed to collect the skin of abdomen and the tendon of tail. Collagen was extracted from each skin and each tendon and treated with collagenase for solubilization. Each of the solubilized collagens was measured for fluorescence at an excitation wavelength of 370 nm and an absorption wave length of 440 nm. At the same time, hydroxyproline was measured by HPLC; a collagen amount was calculated; and the adjustment of fluorescent intensity was made using the value.

[5] = Example 5: general observations in Streptozocin-diabetic rats (blood sugar, body weight, water, food); type: in vivo, Sprague-Dawley female rats; conditions: 100 mg per kg, oral in drinking water; 4, 8 and 14 weeks; vs control group
Experimental: as §1
Incidentally, during the test period, i.e. 4, 8 and 14 weeks after the administration of the organogermanium compound (1-1), there was no difference in blood sugar in hungry state, body weight, amount of water taken and amount of food taken, between the two groups.

[6] = system: tail tendon collagen; assay: Example 5: fluorescence of tail tendon collagen in Streptozocin-diabetic rats; type: in vivo, Sprague-Dawley female rats; conditions: 100 mg per kg, oral in drinking water; 14 weeks
Experimental: as §1, §2

[7] = Example 1: Mailard reaction of Nα-t-Boc-lysine (model protein) with glucose; AGE formation (absorbance at 420 nm) and Nα-t-Boc-lysine consumption (HPLC); type: biochemical; conditions: 40° C.
Experimental: The organogermanium compound (1-1) was added to a phosphate buffer solution (50 mM, pH 7.4) containing 50 mM of Nα-t-butoxycarbonyl-L-lysine (hereinafter abbreviated to Nα-t-Boc-lysine) as a model protein and 1M of glucose, so that the final concentration became 0, 1, 5 or 10 mM. Then, incubation was conducted at 40° C. for 15 days, after which the formation of AGE was measured by browning degree (absorbance at 420 nm) and the amount of Nα-t-Boc-lysine consumed was measured by high-performance liquid chromatography (hereinafter abbreviated to HPLC) to examine the effect of the organogermanium compound (1-1) added.

[8] = system: rats; assay: Acute oral toxicity in rats (LD50); type: in vivo; conditions: oral administration
From the text: (§3) The organogermanium compound (1) used in the present agent has very low toxicity. In the case of oral administration of the compound (1-1), the LD50 is 6 g or more for mice and 10 g or more for rats.

[9] = system: Fructosamine in serum; assay: Example 6: serum Fructosamine in diabetes patients; type: in vivo, human (diabetes patients); conditions: 750 mg/day for 2 months; 20 diabetes patients (FIG. 11)
Experimental: An organogermanium compound (1-1) was administered to 20 diabetes patients (they were diagnosed as diabetes by a 75-g grape sugar loading test) at a dose of 750 mg/day for 2 months. Fructosamine content in serum of each patient was measured before and after the administration.
Fructosamine content in serum was measured by an ordinary method, i.e. by adding a test sample or a reference (a standard Amadori rearrangement product) to a NTB solution, subjecting the mixture to incubation at 37° C., and measuring the developed color.

[10] = system: mice; assay: Acute oral toxicity in mice (LD50); type: in vivo; conditions: oral administration
From the text: as §3

## N=C(N)NN [aminoguanidine, reference compound]
[1]; compared with compound (1-1), used in its place
  effect in the test of Example 2 (AGE formation and F-lysine consumption): substantially no effect

## O=C(O)C[CH2][Ge](=[O])[O][Ge](=[O])[CH2]CC(=O)O [compound (1-1)]
[1]; 50 mM, 40° C., 15 days, HPLC (FIG. 4)
  consumption of F-lysine (suppressed to): about 20%
[1]; 5-50 mM, 40° C., 15 days, HPLC (FIG. 4)
  consumption of F-lysine: suppressed the consumption of F-lysine
[1]; 5-50 mM, 40° C., 15 days, absorbance at 420 nm (FIG. 3)
  suppression of the formation of AGE: suppressed the formation of AGE substantially completely
[2]; 8 weeks (FIG. 8)
  Fru (Fructosamine) vs control group: significantly lower in the administered group
[2]; 14 weeks
  GA (glycated albumin) vs control group: significantly lower in the administered group
[2]; 14 weeks, compared with 8 weeks
  Fru (Fructosamine) difference vs control group: the difference was more significant in 14 weeks
[2]; test period, vs control group
  body weight, amount of water taken and amount of food taken: no difference
[2]; vs control group
  GHb (glucohemoglobin): lower in the administered group
  blood sugar in hungry state: no difference
[3]
  alginine increase and unidentified substance peak increase: substantially seen neither alginine increase nor unidentified substance peak increase
  decrease of the Amadori rearrangement product: very mild
[4]
  fluorescence of skin collagen vs control group: significantly lower
[5]
  blood sugar in hungry state: no difference
  body weight, amount of water taken and amount of food taken: no difference
[6]
  fluorescence of tendon collagen vs control group: significantly lower
[7]; 0, 1, 5 or 10 mM, 15 days (FIG. 1)
  suppression of the formation of AGE, concentration dependence: suppressed the formation of AGE dependently upon the concentration
[7]; 10 mM, 15 days, HPLC (FIG. 2)
  consumption of Nα-t-Boc-lysine (suppressed to): about 10%
[7]; 5-10 mM, 15 days, pH 7.4, absorbance at 420 nm (FIG. 1)
  suppression of the formation of AGE: suppressed the formation substantially completely
[8]
  LD50: ≥ 10 g
[9]
  Fructosamine content in serum after vs before administration: lower after the administration
[10]
  LD50: ≥ 6 g
